Reference: patent US6593337B1, “Tricyclic compounds useful as HIV reverse transcriptase inhibitors” (Bristol-Myers Squibb Pharma Company, priority 1999, dated 2003)

SMILES | melting point [°C]
CC(C)N(C)CC1(C(F)(F)F)c2cc(Cl)ccc2Nc2ncccc21 (stereo not drawn) [No. 93] | 157 to 158
CCN(CC)CC1(C(F)(F)F)c2cc(Cl)ccc2Nc2ncccc21 (stereo not drawn) [No. 94, 7-Chloro-5-(N,N-diethylaminomethyl)-5,10-dihydro-5-(trifluoromethyl)benzo[b][1,8]napthyridine] | 110 to 111
Fc1ccc2c(c1)C(OCC1CC1)(C(F)F)c1cccnc1N2 (stereo not drawn) [No. 180, 7-Fluoro-5-cyclopropylmethoxy-5-difluoromethyl-5,10-dihydro-benzo[b][1,8]naphthyridine] | 137 to 138
FC(F)C1(OCCC2CC2)c2cc(Cl)ccc2Nc2ncccc21 (stereo not drawn) [No. 181, 7-Chloro-5-(2-cyclopropyl-ethoxy)-5-difluoromethyl-5,10-dihydro-benzo[b][1,8]naphthyridine] | 148 to 149
FC(F)C1(Cc2ccccn2)c2cc(Cl)ccc2Nc2ncccc21 (stereo not drawn) [No. 182, 7-Chloro-5-pyridin-2-ylmethyl-5-difluoromethyl-5,10-dihydro-benzo[b][1,8]naphthyridine] | 204 to 205
[O-][n+]1cccc2c1Nc1ccc(Cl)cc1C2(OCC1CC1)C(F)F (stereo not drawn) [No. 184, 7-Chloro-5-cyclopropylmethoxy-5-difluoromethyl-5,10-dihydro-benzo[b][1,8]naphthyridine 1-oxide] | 185 to 186
CC(C)COC1(C(F)(F)F)c2cccnc2Nc2ncc(Cl)cc21 (stereo not drawn) [No. 203, 3-Chloro-10-isobutoxy-10-trifluoromethyl-9,10-dihydro-1,8,9-triaza-anthracene] | 166 to 167

The next lines start with the values.

melting point [°C] | SMILES
166 to 167 | [O-][n+]1cccc2c1Nc1ccc(F)cc1C2(OCC1CC1)C(F)F (stereo not drawn) [No. 185, 7-Fluoro-5-cyclopropylmethoxy-5-difluoromethyl-5,10-dihydro-benzo[b][1,8]naphthyridine 1-oxide]
175 to 176 | [O-][n+]1cccc2c1Nc1ccc(Cl)cc1C2(OCCC1CC1)C(F)F (stereo not drawn) [No. 186, 7—Chloro-5-(2-cyclopropyl-ethoxy)-5-difluoromethyl-5,10-dihydro-benzo[b][1,8]naphthyridine 1-oxide]
210 to 211 | [O-][n+]1cccc2c1Nc1ccc(Cl)cc1C2(Cc1ccccn1)C(F)F (stereo not drawn) [No. 187, 7—Chloro-5-pyridin-2-ylmethyl-5-difluoromethyl-5,10-dihydro-benzo[b][1,8]naphthyridine 1-oxide]
163 to 164 | [O-][n+]1cc(Cl)cc2c1Nc1ccc(Cl)cc1C2(OCC1CC1)C(F)F (stereo not drawn) [No. 188, 3,7-Dichloro-5-cyclopropylmethoxy-5-difluoromethyl-5,10-dihydro-benzo[b][1,8]naphthyridine 1-oxide]
68 to 69 | [O-][n+]1cccc2c1Nc1ncc(Cl)cc1C2(OCC1CC1)C(F)(F)F (stereo not drawn) [No. 201, 3-Chloro-10-cyclopropylmethoxy-10-trifluoromethyl-9,10-dihydro-1,8,9-triaza-anthracene 8-oxide]
